In US4250170A, “Antibacterial agents Bu-2349A and B and method of using same” (Bristol-Myers Company, priority 1979, dated 1981):
Values after ≈ are worked out from the molar mass of the structure shown. Read-outs that look alike come from different tables or passages of the source.

How the values were obtained:
[1] = system: Acidoaminococcus fermentans ATCC 25085 (Ae-1); assay: MIC against anaerobic bacteria; assay type: cell-based; details: 18 h; Table 4; GAM Medium, pH 7
[2] = system: Neisseria meningitidis (Nm-1); assay: MIC, two-fold agar dilution; assay type: cell-based; details: 18 h, Table 3, GC agar, 10^-2 dilution
[3] = system: Staphylococcus aureus Smith (Sa-2); assay: MIC, two-fold agar dilution; assay type: cell-based; details: 18 h, Table 3, Mueller-Hinton agar, 10^-4 dilution
[4] = system: Fusobacterium varium ATCC 8501 (Fv-1); assay: MIC against anaerobic bacteria; assay type: cell-based; details: ATCC8501, 18 h, Table 4, GAM Medium, pH 7
[5] = system: Streptococcus pyogenes (Sp-3); assay: MIC, two-fold agar dilution; assay type: cell-based; details: 18 h, Table 3, GC agar, 10^-2 dilution
[6] = system: Proteus stuartii (Ps-2), AAC(2'); assay: MIC, two-fold agar dilution; assay type: cell-based; details: 18 h; Table 3; Mueller-Hinton agar, 10^-4 dilution; enzyme AAC(2')
anaerobic organisms = assay: in vitro activity against anaerobic bacteria, overall statement; assay type: cell-based; details: most of the anaerobic organisms tested
[7] = system: Streptococcus viridans (Sv-1); assay: MIC, two-fold agar dilution; assay type: cell-based; details: 18 h, Table 3, GC agar, 10^-2 dilution
[8] = system: Klebsiella pneumoniae (Kp-2); assay: MIC, two-fold agar dilution; assay type: cell-based; details: 18 h
Description: (§1) The minimum inhibitory concentrations (MIC) of Bu-2349A and B were determined against a wide variety of bacteria by the two-fold agar dilution method. Mueller-Hinton agar medium was generally used for the determination of bacterial MIC except for species of Streptococcus, Neisseria and Hemophilus for which Gonococcus agar medium (GC agar, Nissui Co., Tokyo) was used. Gifu anaerobe agar medium (GAM agar, Eiken Co., Tokyo) was used for anaerobic bacteria. The MIC's were determined after overnight incubation at 37° C. with an initial inoculum equivalent to a 10^-4 dilution of an 18-hour culture for the aerobic and anaerobic bacteria, except for Streptococcus, Neisseria and Hemophilus for which a 10^-2 dilution was used.
(§2) The influence of inoculum size on MIC was tested on Mueller-Hinton agar using an inoculum of […], 10^-2 or 10^-4 dilution of the overnight culture of test organisms.
(§3) The effect of media pH on the MIC's of Bu-2349A was determined at three pH levels (6, 7 and 8) using Mueller-Hinton agar.
(§4) The media effect on the MIC's of Bu-2349A was tested using four kinds of assay media: Mueller-Hinton agar (MHA), nutrient agar (NA), heart infusion agar (HIA) and brain heart infusion agar (BHIA). The pH was adjusted at 7 and a 10^-4 dilution of overnight culture was used for the inoculum.

[9] = system: Staphylococcus aureus 209P (Sa-1); assay: MIC, two-fold agar dilution; assay type: cell-based; details: 18 h
Description: as §1, §2, §3, §4

[10] = system: Bacillus subtilis PCI 219 (Bs-1); assay: MIC, two-fold agar dilution; assay type: cell-based; details: 18 h
Description: as §1, §2, §3, §4

[11] = system: Pseudomonas aeruginosa (Pa-3); assay: MIC, two-fold agar dilution; assay type: cell-based; details: 18 h
Description: as §1, §2, §3, §4

S. pneumoniae A20759 = assay: experimental infections in mice; assay type: in vivo; details: im
Description: (§5) The in vivo antibacterial activity of Bu-2349A was determined by experimental infections in mice. Mice were challenged via the intraperitoneal route with a 100 X LD50 dose of the pathogens in a 5% suspension of hog gastric mucin (American Laboratories, Omaha, Neb.). Bu-2349A was administered by the intramuscular route immediately after the bacterial challenge.

K. pneumoniae A9977 = assay: experimental infections in mice; assay type: in vivo; details: Klebsiella pneumoniae, A9977, 120 h, im, 100 X LD50 ip challenge, 5 days, read-out: PD50 (median protective dose)
Description: as §5

P. mirabilis A9554 = assay: experimental infections in mice; assay type: in vivo; details: Proteus mirabilis, A9554, 120 h, im, 100 X LD50 ip challenge, 5 days, read-out: PD50 (median protective dose)
Description: as §5

S. aureus Smith = assay: experimental infections in mice; assay type: in vivo; details: Staphylococcus aureus, 120 h, im, 100 X LD50 ip challenge, 5 days, read-out: PD50 (median protective dose)
Description: as §5

E. coli Juhl = assay: experimental infections in mice; assay type: in vivo; details: Escherichia coli, 120 h, im, 100 X LD50 ip challenge, 5 days, read-out: PD50 (median protective dose)
Description: as §5

P. vulgaris A9436 = assay: experimental infections in mice; assay type: in vivo; details: Proteus vulgaris, A9436, 120 h, im, 100 X LD50 ip challenge, 5 days, read-out: PD50 (median protective dose)
Description: as §5

[12] = system: Escherichia coli (Ec-62), AAC(3)- 1; assay: MIC, two-fold agar dilution; assay type: cell-based; details: 18 h, Table 3, Mueller-Hinton agar, 10^-4 dilution, enzyme AAC(3)- 1
Mycobacterium 607 (M6-1) = assay: MIC, two-fold agar dilution; assay type: cell-based; details: 18 h, Table 3, Mueller-Hinton agar, 10^-4 dilution
[13] = Table 3, Mueller-Hinton agar, 10^-4 dilution
[14] = pH 6, Table 6, Mueller-Hinton Agar, 10^-4 dilution, pH 6
[15] = pH 7, Table 5, Mueller-Hinton Agar, pH 7, inoculum 10^0 dil.
[16] = pH 7, Table 5, Mueller-Hinton Agar, pH 7, inoculum 10^-2 dil.
[17] = pH 7, Table 5, Mueller-Hinton Agar, pH 7, inoculum 10^-4 dil.
[18] = pH 7, Table 6, Mueller-Hinton Agar, 10^-4 dilution, pH 7
[19] = pH 7, Table 7, pH 7, 10^-4 dilution, BHIA
[20] = pH 7, Table 7, pH 7, 10^-4 dilution, HIA
[21] = pH 7, Table 7, pH 7, 10^-4 dilution, MHA
[22] = pH 7, Table 7, pH 7, 10^-4 dilution, NA
[23] = pH 8, Table 6, Mueller-Hinton Agar, 10^-4 dilution, pH 8

C=C1OC(OC2C(CO)OC(Oc3ccc(C(=O)NCCCNCCCCNCCCCN)cc3)C2O)C(O)C(OC2OC(CO)C(OC3OC(C)C(N)C(O)C3NC(=O)C(C)N)C(O)C2O)C1O (stereo not shown) [Bu-2349A]
MIC [1]: 50 µg/mL (≈ 50.5 µM) | MIC [2]: > 100 µg/mL | MIC [3]: 3.1 µg/mL (≈ 3.13 µM) | MIC [4]: > 100 µg/mL | MIC [5]: > 100 µg/mL | MIC [6]: 1.6 µg/mL (≈ 1.62 µM) | activity against anaerobic organisms (anaerobic organisms): inactive | MIC [7]: > 100 µg/mL | MIC ([8]; Table 3, Mueller-Hinton agar, 10^-4 dilution, read-out: MIC): 3.1 µg/mL (≈ 3.13 µM) | MIC ([8]; pH 6, Table 6, Mueller-Hinton Agar, 10^-4 dilution, pH 6, read-out: MIC): 50 µg/mL (≈ 50.5 µM) | MIC ([8]; pH 7): 12.5 µg/mL (≈ 12.6 µM) | MIC ([8]; pH 7, Table 5, Mueller-Hinton Agar, pH 7, inoculum 10^-2 dil., read-out: MIC): 6.3 µg/mL (≈ 6.36 µM) | MIC ([8]; pH 7, Table 5, Mueller-Hinton Agar, pH 7, inoculum 10^-4 dil., read-out: MIC): 3.1 µg/mL (≈ 3.13 µM) | MIC ([8]; pH 7, Table 6, Mueller-Hinton Agar, 10^-4 dilution, pH 7, read-out: MIC): 3.1 µg/mL (≈ 3.13 µM) | MIC ([8]; pH 7, Table 7, pH 7, 10^-4 dilution, BHIA, read-out: MIC): 3.1 µg/mL (≈ 3.13 µM) | MIC ([8]; pH 7, Table 7, pH 7, 10^-4 dilution, HIA, read-out: MIC): 1.6 µg/mL (≈ 1.62 µM) | MIC ([8]; pH 7, Table 7, pH 7, 10^-4 dilution, MHA, read-out: MIC): 3.1 µg/mL (≈ 3.13 µM) | MIC ([8]; pH 7, Table 7, pH 7, 10^-4 dilution, NA, read-out: MIC): 1.6 µg/mL (≈ 1.62 µM) | MIC ([8]; pH 8, Table 6, Mueller-Hinton Agar, 10^-4 dilution, pH 8, read-out: MIC): 3.1 µg/mL (≈ 3.13 µM) | MIC [9, 13]: 3.1 µg/mL (≈ 3.13 µM) | MIC [9, 14]: 50 µg/mL (≈ 50.5 µM) | MIC [9, 15]: 6.3 µg/mL (≈ 6.36 µM) | MIC [9, 16]: 3.1 µg/mL (≈ 3.13 µM) | MIC [9, 17]: 3.1 µg/mL (≈ 3.13 µM) | MIC [9, 18]: 3.1 µg/mL (≈ 3.13 µM) | MIC [9, 19]: 3.1 µg/mL (≈ 3.13 µM) | MIC [9, 20]: 1.6 µg/mL (≈ 1.62 µM) | MIC [9, 21]: 3.1 µg/mL (≈ 3.13 µM) | MIC [9, 22]: 1.6 µg/mL (≈ 1.62 µM) | MIC [9, 23]: 1.6 µg/mL (≈ 1.62 µM) | MIC [10, 13]: 1.6 µg/mL (≈ 1.62 µM) | MIC [10, 14]: 50 µg/mL (≈ 50.5 µM) | MIC [10, 15]: 6.3 µg/mL (≈ 6.36 µM) | MIC [10, 16]: 3.1 µg/mL (≈ 3.13 µM) | MIC [10, 17]: 3.1 µg/mL (≈ 3.13 µM) | MIC [10, 18]: 3.1 µg/mL (≈ 3.13 µM) | MIC [10, 19]: 6.3 µg/mL (≈ 6.36 µM) | MIC [10, 20]: 1.6 µg/mL (≈ 1.62 µM) | MIC [10, 21]: 3.1 µg/mL (≈ 3.13 µM) | MIC [10, 22]: 0.8 µg/mL (≈ 0.808 µM) | MIC [10, 23]: 1.6 µg/mL (≈ 1.62 µM) | MIC [11, 13]: 25 µg/mL (≈ 25.2 µM) | MIC [11, 14]: > 50 µg/mL | MIC [11, 15]: > 50 µg/mL | MIC [11, 16]: 50 µg/mL (≈ 50.5 µM) | MIC [11, 17]: 25 µg/mL (≈ 25.2 µM) | MIC [11, 18]: 25 µg/mL (≈ 25.2 µM) | MIC [11, 19]: 25 µg/mL (≈ 25.2 µM) | MIC [11, 20]: 12.5 µg/mL (≈ 12.6 µM) | MIC [11, 21]: 50 µg/mL (≈ 50.5 µM) | MIC [11, 22]: 6.3 µg/mL (≈ 6.36 µM) | MIC [11, 23]: 12.5 µg/mL (≈ 12.6 µM) | ED50 (S. pneumoniae A20759; Streptococcus pneumoniae, A20759, 120 h, 100 X LD50 ip challenge, 5 days, read-out: PD50 (median protective dose)): > 100 mg/kg | activity against the S. pneumoniae infection (S. pneumoniae A20759): inactive | ED50 (K. pneumoniae A9977): 7.2 mg/kg | ED50 (P. mirabilis A9554): 16 mg/kg | ED50 (S. aureus Smith): 3.2 mg/kg | ED50 (E. coli Juhl): 5.4 mg/kg | ED50 (P. vulgaris A9436): 12 mg/kg | MIC [12]: 1.6 µg/mL (≈ 1.62 µM) | MIC (Mycobacterium 607 (M6-1)): 3.1 µg/mL (≈ 3.13 µM)
